In US12565501B2, “Muscarinic acetylcholine M1 receptor antagonists” (Contineum Therapeutics, Inc., priority 2019, dated 2026):

These compounds were tested against T1, human M1 receptor (Homo sapiens, UniProt P11229) (assay: In vitro functional assay of muscarinic acetylcholine receptor activity (aequorin calcium flux, reversal of EC80 acetylcholine response)). Conditions: CHO-K1 cells stably expressing human M1 receptor with aequorin; acetylcholine at EC80; calcium flux (luminescence); read-out: M1 IC50.
T1 sequence (P11229 1-460): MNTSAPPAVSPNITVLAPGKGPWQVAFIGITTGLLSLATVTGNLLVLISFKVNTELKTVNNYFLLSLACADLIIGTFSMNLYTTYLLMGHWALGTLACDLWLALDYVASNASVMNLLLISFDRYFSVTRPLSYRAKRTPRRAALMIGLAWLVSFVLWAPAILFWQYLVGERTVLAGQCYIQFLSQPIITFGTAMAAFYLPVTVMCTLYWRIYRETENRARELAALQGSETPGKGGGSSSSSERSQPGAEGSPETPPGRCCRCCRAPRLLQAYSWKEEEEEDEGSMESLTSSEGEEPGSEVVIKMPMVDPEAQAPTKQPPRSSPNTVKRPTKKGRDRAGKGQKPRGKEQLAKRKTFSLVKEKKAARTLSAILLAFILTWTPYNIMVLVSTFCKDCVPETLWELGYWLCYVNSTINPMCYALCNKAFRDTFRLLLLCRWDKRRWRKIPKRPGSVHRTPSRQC
Assay type: cell-based
Protocol: CHO-K1 cells stably expressing human M1 receptor with aequorin (Perkin Elmer) were grown in F12 media (Gibco) containing 10% FBS (ATCC), 0.4 mg/mL geneticin (Sigma-Aldrich) and 0.25 mg/mL Zeocin (Invitrogen). Cells were grown as per the manufacturer's protocol. For compound testing, cells were grown to confluency and detached gently with Accutase (Sigma-Aldrich) followed by centrifugation for 5 min at 150× g. Cells were then re-suspended in assay buffer (i.e. DMEM/F-12 HEPES without phenol red (Invitrogen) with 0.1% BSA (Sigma-Aldrich)) at a density of 5×10^6 cells/ml. Under sterile conditions, 5 μM coelenterazine (Invitrogen) was added to the cells, mixed, then incubated at room temperature protected from light, with gentle agitation, for 4 h.
Primary compound plates were prepared in 100% DMSO in opaque 96-well plates (VWR) and serially diluted in half log increments. Secondary compound plates were prepared at 3× concentration in assay buffer. Compounds were added to white, clear bottom tissue culture treated 96-well plates (Fisher Scientific). Coelenterazine-loaded cells were then added at 5×10^5 cells/well.
Compounds and cells were incubated at room temperature for 30 min in the dark. Acetylcholine at the EC80 concentration was added and calcium flux measured using a FlexStation 3 (Molecular Devices). Sigmoidal dose-response curves were generated by measuring luminescence over 40 sec and calculating the area under the curve. Dose response curves and IC50 values were generated using Prism (GraphPad). Compounds were tested at a final concentration range of 100 μM to […] in 0.1% DMSO.

Row | SMILES | IC50
1 | N#Cc1ccc(N2C3CCC2CN(C(=O)COC2(c4ccccc4F)CCC2)C3)nc1 [Example 236, 6-(3-(2-(1-(2-fluorophenyl)cyclobutoxy)acetyl)-3,8-diazabicyclo[3.2.1]octan-8-yl)nicotinonitrile] | 100 to 1000 nM
2 | N#Cc1ccc(N2C3CCC2CN(C(=O)COC2(c4cncc(F)c4)CCC2)C3)nc1 [Example 251, 6-(3-(2-(1-(5-fluoropyridin-3-yl)cyclobutoxy)acetyl)-3,8-diazabicyclo[3.2.1]octan-8-yl)nicotinonitrile] | 100 to 1000 nM
3 | N#Cc1ccc(N2C3CCC2CN(C(=O)CNC2(c4ccc(F)c(F)c4)CC2)C3)nc1 [Example 60, 6-(3-((1-(3,4-difluorophenyl)cyclopropyl)glycyl)-3,8-diazabicyclo[3.2.1]octan-8-yl)nicotinonitrile] | 10 to 100 nM
4 | N#Cc1ccc(N2C3CCC2CN(C(=O)CCC(F)(F)c2cccc4ncccc24)C3)nc1 [Example 122, 6-(3-(4,4-difluoro-4-(quinolin-5-yl)butanoyl)-3,8-diazabicyclo[3.2.1]octan-8-yl)nicotinonitrile] | < 10 nM
5 | COc1cc(C(F)(F)C2CC2C(=O)N2CC3CCC(C2)N3c2ccc(C#N)cn2)ccn1 (racemic) [Example 166, 6-(3-(2-(difluoro(2-methoxypyridin-4-yl)methyl)cyclopropane-1-carbonyl)-3,8-diazabicyclo[3.2.1]octan-8-yl)nicotinonitrile] | 1000 to 10000 nM
6 | COc1cc(C2(OCC(=O)N3CC4CCC(C3)N4c3ccc(C#N)cn3)CCC2)ccn1 [Example 252, 6-(3-(2-(1-(2-methoxypyridin-4-yl)cyclobutoxy)acetyl)-3,8-diazabicyclo[3.2.1]octan-8-yl)nicotinonitrile] | 10 to 100 nM
7 | CC(SCCC(=O)N1CC2CCC(C1)N2c1ccc(C#N)cn1)c1ccc(F)cc1 (racemic) [Example 135, 6-((3-((1-(4-fluorophenyl)ethyl)thio)propanoyl)-3,8-diazabicyclo[3.2.1]octan-8-yl)nicotinonitrile] | 1000 to 10000 nM
8 | C[C@H](OCC(=O)N1C[C@H]2CC[C@@H](C1)N2c1ccc(C#N)cn1)c1ccc(F)c(F)c1 [Example 182, 6-(3-(2-((S)-1-(3,4-difluorophenyl)ethoxy)acetyl)-3,8-diazabicyclo[3.2.1]octan-8-yl)nicotinonitrile] | 10 to 100 nM
9 | COc1ccc2c(c1)C(NCC(=O)N1CC3CCC(C1)N3c1ccc(C#N)cn1)CC2 (racemic) [Example 90, 6-(3-((6-methoxy-2,3-dihydro-1H-inden-1-yl)glycyl)-3,8-diazabicyclo[3.2.1]octan-8-yl)nicotinonitrile] | 100 to 1000 nM
10 | N#Cc1ccc(N2C3CCC2CN(C(=O)CNC2(c4ccc(F)cc4F)CC2)C3)cc1 [Example 85, 4-(3-((1-(2,4-difluorophenyl)cyclopropyl)glycyl)-3,8-diazabicyclo[3.2.1]octan-8-yl)benzonitrile] | 10 to 100 nM
11 | N#Cc1ccc(N2C3CCC2CN(C(=O)CNC2(c4ccc(F)cc4)CC2)C3)nc1 [Example 96, 6-(3-((1-(4-fluorophenyl)cyclopropyl)glycyl)-3,8-diaabicyclo[3.2.1]octan-8-yl)nicotinonitrile] | 100 to 1000 nM
12 | N#Cc1ccc(N2C3CCC2CN(C(=O)CCOCC2(c4ccccc4)CC2)C3)nc1 [Example 307, 6-(3-(3-((1-phenylcyclopropyl)methoxy)propanoyl)-3,8-diazabicyclo[3.2.1]octan-8-yl)nicotinonitrile] | 100 to 1000 nM
13 | COc1ccc(C#N)c(C2(OCC(=O)N3CC4CCC(C3)N4c3ccc(C#N)cn3)CC2)c1 [Example 293, 6-(3-(2-(1-(2-cyano-5-methoxyphenyl)cyclopropoxy)acetyl)-3,8-diazabicyclo[3.2.1]octan-8-yl)nicotinonitrile] | < 10 nM
14 | CC(c1ccc(F)cc1)[S+]([O-])CCC(=O)N1CC2CCC(C1)N2c1ccc(C#N)cn1 (racemic) [Example 170, 6-(3-(3-((1-(4-fluorophenyl)ethyl)sulfinyl)propanoyl)-3,8-diazabicyclo[3.2.1]octan-8-yl) nicotinonitrile] | > 1000 nM
15 | N#Cc1ccc(N2[C@@H]3CC[C@H]2CN(C(=O)CCNC2(c4cccc(F)c4F)CC2)C3)nc1 [Example 32, 6-(3-(3-((1-(2,3-difluorophenyl)cyclopropyl)amino)propanoyl)-3,8-diazabicyclo[3.2.1]octan-8-yl)nicotinonitrile] | 10 to 100 nM
16 | COc1ccnc(C2(OCC(=O)N3CC4CCC(C3)N4c3ccc(C#N)cn3)CCC2)c1 [Example 255, 6-(3-(2-(1-(4-methoxypyridin-2-yl)cyclobutoxy)acetyl)-3,8-diazabicyclo[3.2.1]octan-8-yl)nicotinonitrile] | < 10 nM
17 | N#Cc1ccc(N2C3COCC2CN(C(=O)COC2(c4ccc(F)c(F)c4)CC2)C3)nc1 [Example 279, 6-(7-(2-(1-(3,4-difluorophenyl)cyclopropoxy)acetyl)-3-oxa-7,9-diazabicyclo[3.3.1]nonan-9-yl)nicotinonitrile] | 1000 to 10000 nM
18 | CC(OCCC(=O)N1CC2CCC(C1)N2c1ccc(C#N)cn1)c1cccc2ncnn12 (racemic) [Example 308, 6-(3-(3-(1-([1,2,4]triazolo[1,5-a]pyridin-5-yl)ethoxy)propanoyl)-3,8-diazabicyclo[3.2.1]octan-8-yl)nicotinonitrile] | < 10 nM
19 | COc1c(F)cccc1C1(NCC(=O)N2CC3CCC(C2)N3c2ccc(C#N)cn2)CC1 [Example 77, 6-(3-((1-(3-fluoro-2-methoxyphenyl)cyclopropyl)glycyl)-3,8-diazabicyclo[3.2.1]octan-8-yl)nicotinonitrile] | < 10 nM
20 | COc1cccc(C2(NCC(=O)N3CC4CCC(C3)N4c3ccc(C#N)cn3)CC2)c1F [Example 103, 6-(3-((1-(2-fluoro-3-methoxyphenyl)cyclopropyl)glycyl)-3,8-diazabicyclo[3.2.1]octan-8-yl)nicotinonitrile] | 10 to 100 nM
21 | Cc1noc(C)c1C1(OCC(=O)N2CC3CCC(C2)N3c2ccc(C#N)cn2)CCC1 [Example 265, 6-(3-(2-(1-(3,5-dimethylisoxazol-4-yl)cyclobutoxy)acetyl)-3,8-diazabicyclo[3.2.1]octan-8-yl)nicotinonitrile] | < 10 nM
22 | N#Cc1ccc(N2[C@@H]3CC[C@H]2CN(C(=O)CCNC2(c4cc(F)cc(F)c4)CC2)C3)nc1 [Example 33, 6-(3-(3-((1-(3,5-difluorophenyl)cyclopropyl)amino)propanoyl)-3,8-diazabicyclo[3.2.1]octan-8-yl)nicotinonitrile] | 10 to 100 nM
23 | CC(COCC(=O)N1CC2CCC(C1)N2c1ccc(C#N)cn1)c1ccccc1 (stereo in doubt) [Example 185, 6-(3-(2-((S)-2-phenylpropoxy)acetyl)-3,8-diazabicyclo[3.2.1]octan-8-yl)nicotinonitrile] | 100 to 1000 nM
24 | N#Cc1ccc(N2C3CCC2CN(C(=O)COC2(c4cncnc4)CCC2)C3)nc1 [Example 262, 6-(3-(2-(1-(pyrimidin-5-yl)cyclobutoxy)acetyl)-3,8-diazabicyclo[3.2.1]octan-8-yl)nicotinonitrile] | 100 to 1000 nM
25 | N#Cc1ccc(N2C3CCC2CN(C(=O)CCNC(c2ccc(F)c(F)c2)C(F)F)C3)nc1 (racemic) [Example 129, 6-(3-(3-((1-(3,4-difluorophenyl)-2,2-difluoroethyl)amino)propanoyl)-3,8-diazabicyclo[3.2.1]octan-8-yl)nicotinonitrile] | < 10 nM
